Measured values published in patent US6316409A, “Modified ligands of calcium-dependent binding proteins” (Medical Research Council, priority 1996, dated 2001).
Entries after “also recorded” stand apart in the source; their conditions may differ. Peptide text beside a SMILES is read from it.

Columns and labels:
bovine brain calmodulin [1] = target: T1, bovine brain calmodulin (Bos taurus, UniProt P62157); assay: BIAcore surface plasmon resonance, kon and koff of calmodulin binding to biotinylated peptides; details: for koff / kon: BIAcore; for koff: read-out: koff (s^-1)^B; for kon: read-out: kon (s^-1 M^-1)^B
T1 construct: Complexes between calmodulin from bovine brain (1 μM, Sigma); purchased Sigma; host or cells: bovine brain (tissue-derived)
Excerpt: (§1) For a kinetic and thermodynamic characterisation of the binding of the peptides of the present invention to bovine brain calmodulin, we have measured the kinetic isomerisation, association, and dissociation constants from which dissociation constants can be derived.
koff =k-1·k-2 /(k+2 +k-2)
Real-time interaction analysis by surface plasmon resonance on a BIAcore instrument (Jonsson et al., 1991) was used to determine kon and koff constants. Biotinylated peptides 1-17 were bound to commercially available streptavidin-coated microsensor chips (Pharmacia Biosensor), in order to achieve a surface capacity of 100-200 surface plasmon resonance units of calmodulin bound. Different concentrations of calmodulin (5, 10, 20, 50 and 100 nM in the order of FIG. 2) were injected and allowed to associate with the peptides. Regeneration of the surface was achieved by injection of 5 μl TBS+[…] which dissociates the calmodulin-peptide complex.

calmodulin = calmodulin (Bos taurus, UniProt P62157); assay: koff by competition experiments, native PAGE of fluorescein-labelled peptide/calmodulin complexes; assay type: binding, bovine; set-up: Complexes between calmodulin from bovine brain (1 μM, Sigma); purchased Sigma; host or cells: bovine brain (tissue-derived); details: for koff: competition with 30-fold excess unlabelled peptide, room temperature, gel buffer, read-out: koff (s^-1)^C
Method: Complexes between calmodulin from bovine brain (1 μM, Sigma) and fluorescein-labelled sMLCK-derived peptides (as described in Table 1 (SEQ ID NOS:2-18)) were prepared in gel buffer (25% gel mix [4 g sucrose+1 mg bromophenol blue in water to give a 10 ml solution]+75% TBSC [50 mM TRIS pH 7.4, […]+50 μM CaCl2)] and run on a 15% native PAGE gel (5 ml 30% acrylamide-bisacrylamide solution+4.5 ml water+0.5 ml 3M Tris, pH 8.8, +1 μl 1M CaCl2 polymerised with 30 μl 25% ammonium persulphate and 9 μl TEMED) using 14.4 g/l glycine+3 g/l Tris-base+0.1 mM CaCl2 as running buffer. Peptides were labelled either with iodoacetamido fluorescein (Molecular Probes) or with iodoacetamido-LC-biotin (Pierce) essentially as previously described by Neri et al., (1995). In these conditions, the fluorescence of the positively-charged labelled peptides can be detected only if they form a stable complex with calmodulin.
In order to obtain an independent experimental confirmation if the BIAcore results, koff constants for peptides 1-17 towards calmodulin were determined by competition experiments. 30 nM fluorescein-labelled peptide/calmodulin complexes in gel buffer were competed at room temperature for different times with 30-fold excess of unlabelled peptide. The resulting mixtures were run on native PAGE gels and imaged by LUANA as described above. The bands in the image obtained were integrated using the LUANA software (Neri et al., 1996) and the corresponding intersities plotted versus time and fitted with a single exponential, from which koff constants were derived. In order to normalise band intensities against pipetting errors, the samples contained 6 nM free fluorescein which ran with the front. The fluorescein bands were integrated and used to normalise the calmodulin/fluorescent peptide complex band intensity. The results of competitions for peptides 1, 2, 3, 6, 9, and 14 are shown in this FIG. 3. Incubation time in minutes is indicated under the lanes.
The volumes of the bands were plotted versus competition time and fitted to a single exponential, from which koff values were derived.
The fastest competitions (peptides 1-4, 9 and 13, SEQ ID NOS:2-5,10, and 14) were over by the time the calmodulin/fluorescent peptide complex entered the gel (approximately 5-10 minutes from pipetting a molar excess of unlabelled peptide; FIG. 3), from which a condition on the off-rate constant koff >1×10^-3 s^-1 was derived. Even for these fast off-rates, complexes can be detected by native polyacrylamide gel electrophoresis because of the well known gel "cage effect" (Fried and Crothers, 1981; Garner and Revzin, 1981).

bovine brain calmodulin [2] = target: T1, bovine brain calmodulin; assay: stopped-flow measurement of kisom of calmodulin-binding peptides; details: changes in tryptophan fluorescence
Excerpt: It has been shown by Torok and Trentham (1994) that smooth muscle MLCK-derived peptides bind to calmodulin with a biphasic kinetic according to the scheme: [drawing 1]
in which P is the peptide, C is calmodulin, P-C is the first complex formed on association of P and C, which then undergoes a conformational isomerisation to P-C*.
as §1
kisom constants have been measured by stopped-flow, detecting changes in tryptophan fluorescence for all the peptides except 3 (SEQ ID NO:4), in which the tryptophan is replaced by alanine.

Row | Structure (SMILES) | koff (bovine brain calmodulin [1]) [s⁻¹] | kon (bovine brain calmodulin [1]) [M⁻¹ s⁻¹] | koff (calmodulin) [s⁻¹] | kisom. (s^-1)^A (bovine brain calmodulin [2]) | dissociation from calmodulin in competition with excess unlabelled peptide, in words (calmodulin; FIG. 3) | improvement of koff with respect to wild type, in words (bovine brain calmodulin [1]) | improvement in Kd / affinity for calmodulin over the wild type peptide, in words (bovine brain calmodulin [1]; Table 1)
1 | CC[C@H](C)[C@H](NC(=O)[C@H](Cc1ccccc1)NC(=O)[C@H](CC(N)=O)NC(=O)[C@H](CCCCN)NC(=O)[C@H](CCCCN)NC(=O)[C@H](Cc1c[nH]c2ccccc12)NC(=O)[C@H](CCCNC(=N)N)NC(=O)[C@H](C)NC(=O)[C@H](C)NC(=O)[C@H](C)NC(=O)[C@@H](N)CS)C(=O)N[C@@H](C)C(=O)N[C@H](C(=O)N[C@@H](CO)C(=O)N[C@@H](C)C(=O)N[C@@H](C)C(=O)N[C@@H](CC(N)=O)C(=O)N[C@@H](CCCNC(=N)N)C(=O)N[C@@H](C)C(=O)N[C@@H](CCCCN)C(=O)N[C@@H](CCCCN)C(=O)N[C@H](C(=O)N[C@@H](CO)C(N)=O)[C@@H](C)CC)C(C)C [Peptide 13] (H-CAAARWKKNFIAVSAANRAKKIS-NH2; N-terminus assumed) | 0.00084 | 930000 | ≥ 0.001 | 1.8 (10.8) × 10^-1 s^-1 | – | – | –
2 | CC[C@H](C)[C@H](NC(=O)[C@H](Cc1ccccc1)NC(=O)[C@H](CC(N)=O)NC(=O)[C@H](CCCCN)NC(=O)[C@H](CCCCN)NC(=O)[C@H](Cc1c[nH]c2ccccc12)NC(=O)[C@H](CCCNC(=N)N)NC(=O)[C@H](C)NC(=O)[C@H](C)NC(=O)[C@H](C)NC(=O)[C@@H](N)CS)C(=O)N[C@@H](C)C(=O)N[C@@H](C)C(=O)N[C@@H](CO)C(=O)N[C@@H](C)C(=O)N[C@@H](C)C(=O)N[C@@H](CC(N)=O)C(=O)N[C@@H](CCCNC(=N)N)C(=O)N[C@@H](Cc1ccccc1)C(=O)N[C@@H](CCCCN)C(=O)N[C@@H](CCCCN)C(=O)N[C@H](C(=O)N[C@@H](CO)C(N)=O)[C@@H](C)CC [Peptide 9] (H-CAAARWKKNFIAASAANRFKKIS-NH2; N-terminus assumed) | 0.0012 | 860000 | ≥ 0.001 | 1.5 (10.3) × 10^-1 s^-1 | dissociated from calmodulin in a few minutes | – | –
3 | CC[C@H](C)[C@H](NC(=O)[C@H](C)NC(=O)[C@H](CC(N)=O)NC(=O)[C@H](CCCCN)NC(=O)[C@H](CCCCN)NC(=O)[C@H](Cc1c[nH]c2ccccc12)NC(=O)[C@H](CCCNC(=N)N)NC(=O)[C@H](C)NC(=O)[C@H](C)NC(=O)[C@H](C)NC(=O)[C@@H](N)CS)C(=O)N[C@@H](C)C(=O)N[C@H](C(=O)N[C@@H](CO)C(=O)N[C@@H](C)C(=O)N[C@@H](C)C(=O)N[C@@H](CC(N)=O)C(=O)N[C@@H](CCCNC(=N)N)C(=O)N[C@@H](Cc1ccccc1)C(=O)N[C@@H](CCCCN)C(=O)N[C@@H](CCCCN)C(=O)N[C@H](C(=O)N[C@@H](CO)C(N)=O)[C@@H](C)CC)C(C)C [Peptide 7] (H-CAAARWKKNAIAVSAANRFKKIS-NH2; N-terminus assumed) | 0.00039 | 900000 | 0.0006 | 2.5 (10.7) × 10^-1 s^-1 | – | – | –
4 | CC[C@H](C)[C@H](NC(=O)[C@H](Cc1ccccc1)NC(=O)[C@H](CC(N)=O)NC(=O)[C@H](C)NC(=O)[C@H](CCCCN)NC(=O)[C@H](Cc1c[nH]c2ccccc12)NC(=O)[C@H](CCCNC(=N)N)NC(=O)[C@H](C)NC(=O)[C@H](C)NC(=O)[C@H](C)NC(=O)[C@@H](N)CS)C(=O)N[C@@H](C)C(=O)N[C@H](C(=O)N[C@@H](CO)C(=O)N[C@@H](C)C(=O)N[C@@H](C)C(=O)N[C@@H](CC(N)=O)C(=O)N[C@@H](CCCNC(=N)N)C(=O)N[C@@H](Cc1ccccc1)C(=O)N[C@@H](CCCCN)C(=O)N[C@@H](CCCCN)C(=O)N[C@H](C(=O)N[C@@H](CO)C(N)=O)[C@@H](C)CC)C(C)C [Peptide 5] (H-CAAARWKANFIAVSAANRFKKIS-NH2; N-terminus assumed) | 0.00029 | 1.1e+06 | 0.00021 | 7.4 (11.0) × 10^-2 s^-1 | – | – | –
5 | CC[C@H](C)[C@H](NC(=O)[C@H](Cc1ccccc1)NC(=O)[C@H](CC(N)=O)NC(=O)[C@H](CCCCN)NC(=O)[C@H](CCCCN)NC(=O)[C@H](Cc1c[nH]c2ccccc12)NC(=O)[C@H](CCCNC(=N)N)NC(=O)[C@H](C)NC(=O)[C@H](C)NC(=O)[C@H](C)NC(=O)[C@@H](N)CS)C(=O)N[C@@H](C)C(=O)N[C@H](C(=O)N[C@@H](CO)C(=O)N[C@@H](C)C(=O)N[C@@H](C)C(=O)N[C@@H](CC(N)=O)C(=O)N[C@@H](C)C(=O)N[C@@H](Cc1ccccc1)C(=O)N[C@@H](CCCCN)C(=O)N[C@@H](CCCCN)C(=O)N[C@H](C(=O)N[C@@H](CO)C(N)=O)[C@@H](C)CC)C(C)C [Peptide 12] (H-CAAARWKKNFIAVSAANAFKKIS-NH2; N-terminus assumed) | 0.00041 | 1.6e+06 | 0.00083 | 1.7 (10.4) × 10^-1 s^-1 | – | – | –
6 | CC[C@H](C)[C@H](NC(=O)[C@H](Cc1ccccc1)NC(=O)[C@H](CC(N)=O)NC(=O)[C@H](CCCCN)NC(=O)[C@H](CCCCN)NC(=O)[C@H](Cc1c[nH]c2ccccc12)NC(=O)[C@H](CCCNC(=N)N)NC(=O)[C@H](C)NC(=O)[C@H](C)NC(=O)[C@H](C)NC(=O)[C@@H](N)CS)C(=O)N[C@@H](C)C(=O)N[C@H](C(=O)N[C@@H](C)C(=O)N[C@@H](C)C(=O)N[C@@H](C)C(=O)N[C@@H](CC(N)=O)C(=O)N[C@@H](CCCNC(=N)N)C(=O)N[C@@H](Cc1ccccc1)C(=O)N[C@@H](CCCCN)C(=O)N[C@@H](CCCCN)C(=O)N[C@H](C(=O)N[C@@H](CO)C(N)=O)[C@@H](C)CC)C(C)C [Peptide 10] (H-CAAARWKKNFIAVAAANRFKKIS-NH2; N-terminus assumed) | 0.0001 | 1.1e+06 | 7.9e-05 | 2.1 (11.0) × 10^-1 s^-1 | – | largest improvements | greatest improvement in affinity; also recorded: greatest improvement in Kd
